Key:
[1] = test system: imiquimod (IMQ)-induced psoriasis in mice; assay: IMQ-induced psoriasis in mice, topical treatment; format: in vivo; details: 0.05% topical clobetasol cream, 10% body surface area
Text: Topical application of imiquimod (IMQ), a TLR7/8 ligand and potent immune activator, is applied to the shaved backs and ears of mice to induce psoriasis. Information on the murine model of IMQ-induced psoriasis can be found at van der Fits L, Mourits S, Voerman JS, Kant M, Boon L, Laman JD, et al. Imiquimod-induced psoriasis-like skin inflammation in mice is mediated via the IL-23/IL-17 axis. J Immunol. 2009; 182:5836-45, which is hereby incorporated by reference in its entirety. Following administration of IMQ, mice ears and skin are observed for erythema, occurrence of scales and thickness after a period of six days. One group of mice were administered 0.05% topical clobetasol cream (10% body surface area), a potent topical steroid, as a positive control, and one group of mice received topical vehicle lacking Compoun 1 (10% body surface area), and one group was administered Compound 1 (3% formulation)(10% body surface area).
The mice were evaluated for erythema, presence of scales, thickness of ear tissue and body weight following administration of the treatments described above. Erythema and scales are determined by comparing the mice to a reference for color and severity of scaling.

[2] = test system: Th17 associated genes; assay: expression of Th17 associated genes in skin by real-time quantitative reverse transcription PCR; format: cell-based; details: skin harvested 24 hours after induction of inflammation
Experimental: Studies were carried out to determine the effect of two RORγt inhibitors of the present disclosure (i.e., Compound 1 and Compound 2, prepared in formulation as described in Example 1) on Th17 associated genes. Skin was harvested from subjects 24 hours after induction of inflammation. The RNA from the samples were isolated, and expression of the genes were quantified through real-time quantitative reverse transcription PCR. Clobetasol was used as a positive control.

[3] = test system: IL17A; assay: skin Resident Immune Cell Assay (sRICA), Th17 model, IL17A protein in media; format: cell-based; details: 100 uM solution in 1% DMSO/OD applied topically to human skin, media collected 24 hours after Th17 activation
Summary of the method: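 Human surgical skin, dermatomed to 750μm, 8 mm biopsies cultured air-liquid in transwells; RORγt inhibitors applied topically at 100 uM in 1% DMSO/OD, up to 24 h before Th17 activation by cytokine/antibody cocktail. IL17A measured in media 24 h post-activation by SiMoA, expressed as % of activated untreated skin.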

C[C@H]1C[C@H]2[C@@H]3CCC4=CC(=O)C=C[C@]4(C)[C@@]3(F)[C@@H](O)C[C@]2(C)[C@@]1(O)C(=O)CCl [Clobetasol]
Body weight change / systemic toxicity [1]: significant weight loss | CCL-20 gene expression [2]: 10% reduction | FoxP3 gene expression [2]: 6-fold increase | IL-17A gene expression [2]: 68% reduction | IL-19 gene expression [2]: 53% reduction | IL-36γ gene expression [2]: 60% reduction | S100A7 gene expression [2]: 62% reduction | SerapinB gene expression [2]: 65% reduction | TNFα gene expression [2]: 25% reduction

COCc1ccc([C@@H](NC(=O)Cc2cc(O)no2)C(=O)Nc2cc(F)c(C(C)(C)C)c(F)c2)cc1 [(2R)-N-(4-tert-butyl-3,5-difluorophenyl)-2-(((3-hydroxy-1,2-oxazol-5-yl)acetyl)amino)-2-(4-(methoxymethyl)phenyl)acetamide]
inhibition at 100 µM [3]: 26.3%

COCc1ccc([C@@H](NC(=O)[C@H]2CNC(=O)C2)C(=O)Nc2cc(F)c([Si](C)(C)C)c(F)c2)cc1 [(3R)-N-((1R)-2-((3,5-difluoro-4-(trimethylsilyl)phenyl)amino)-1-(4-(methoxymethyl)phenyl)-2-oxoethyl)-5-oxopyrrolidine-3-carboxamide]
inhibition at 100 µM ([3]; Homo sapiens, 24 h): 63%

COCc1ccc([C@@H](NC(=O)[C@@H]2CNC(=O)C2)C(=O)Nc2ccc(C(C)(C)C)c(F)c2)cc1 [(3S)-N-((1R)-2-((4-tert-butyl-3-fluorophenyl)amino)-1-(4-(methoxymethyl)phenyl)-2-oxoethyl)-5-oxopyrrolidine-3-carboxamide]
inhibition at 100 µM [3]: 38.7%

CC[Si](C)(C)c1c(F)cc(NC(=O)[C@H]2c3ccc(COC)nc3CCN2C(=O)Cc2cc(O)no2)cc1F
inhibition at 100 µM ([3]; Homo sapiens, 24 h): 68.9%

COCc1ccc2c(c1)CCN(C(=O)Cc1cc(O)no1)[C@H]2C(=O)Nc1ccc([Si](C)(C)C)c(F)c1 [(1R)-N-(3-fluoro-4-(trimethylsilyl)phenyl)-2-((3-hydroxy-1,2-oxazol-5-yl)acetyl)-6-(methoxymethyl)-1,2,3,4-tetrahydroisoquinoline-1-carboxamide]
inhibition at 100 µM ([3]; Homo sapiens, 24 h): 69.9%

COc1ccc2c(c1)CCN(C(=O)Cc1cc(O)no1)[C@H]2C(=O)Nc1ccc([Si](C)(C)C)c(F)c1 [(1R)-N-(3-fluoro-4-(trimethylsilyl)phenyl)-2-((3-hydroxy-1,2-oxazol-5-yl)acetyl)-6-methoxy-1,2,3,4-tetrahydroisoquinoline-1-carboxamide]
inhibition at 100 µM ([3]; Homo sapiens, 24 h): 31.2%

CC[Si](C)(C)c1c(F)cc(NC(=O)[C@H]2c3ccc(OC)nc3CCN2C(=O)CCCC(=O)O)cc1F [5-((5R)-5-((4-(ethyl(dimethyl)silyl)-3,5-difluorophenyl)carbamoyl)-2-methoxy-7,8-dihydro-1,6-naphthyridin-6(5H)-yl)-5-oxopentanoic acid]
inhibition at 100 µM ([3]; Homo sapiens, 24 h): 41.9%

COCc1ccc2c(c1)CCN(C(=O)Cc1cc(O)no1)[C@H]2C(=O)Nc1cc(F)c2c(c1)CCC2(C)C [(1R)-N-(7-fluoro-1,1-dimethyl-2,3-dihydro-1H-inden-5-yl)-2-((3-hydroxy-1,2-oxazol-5-yl)acetyl)-6-(methoxymethyl)-1,2,3,4-tetrahydroisoquinoline-1-carboxamide]
inhibition at 100 µM [3]: 50.5%

COCc1ccc([C@@H](NC(=O)Cc2nnc(C)o2)C(=O)Nc2cc(F)c([Si](C)(C)C)cc2F)cc1 [(2R)-N-(2,5-difluoro-4-(trimethylsilyl)phenyl)-2-(4-(methoxymethyl)phenyl)-2-(((5-methyl-1,3,4-oxadiazol-2-yl)acetyl)amino)acetamide]
inhibition at 100 µM ([3]; Homo sapiens, 24 h): 75.7%

COc1ccc2c(c1)OCCN(C(=O)Cc1cc(O)no1)[C@H]2C(=O)Nc1cc(F)c([Si](C)(C)C)c(F)c1 [(5R)-N-(3,5-difluoro-4-(trimethylsilyl)phenyl)-4-((3-hydroxy-1,2-oxazol-5-yl)acetyl)-8-methoxy-2,3,4,5-tetrahydro-1,4-benzoxazepine-5-carboxamide]
inhibition at 100 µM ([3]; Homo sapiens, 24 h): 58.1%

COCc1ccc([C@@H](NC(=O)C2CCOCC2)C(=O)Nc2ccc([Si](C)(C)C)c(F)c2)cc1 [N-((1R)-2-((3-fluoro-4-(trimethylsilyl)phenyl)amino)-1-(4-(methoxymethyl)phenyl)-2-oxoethyl)tetrahydro-2H-pyran-4-carboxamide]
inhibition at 100 µM ([3]; Homo sapiens, 24 h): -20.1%

Source: patent US20220409643A1, “ROR Gamma T Inhibitors and Topical Uses Thereof” (Dermira, inc., priority 2019, published 2022)
